Columns and labels:
[1] = Storage stability in human plasma, LC-MS/MS after plasma extraction; assay type: in vitro ADME; details: for Stability 4 °C / Stability AS (autosampler) / Stability −20 °C / Stability BT (benchtop): 24 h; for Stability FT (freeze-thaw): freeze-thaw cycles; for Stability −80 °C 90 d: long-term freezing; for Stability BT (benchtop): room temperature
Method: To assess stability, low and high concentrations of all analytes were subjected to different storage conditions. […] For determination of long-term stability, samples were stored in either plasma or DMEM at –80 °C for 90 and 91 days, respectively. To measure short-term stability, samples were stored at room temperature, in an autosampler, at 4 °C, and at –20 °C for 24 h. In addition, freeze-thaw cycles were performed according to FDA guidance for the standard solutions. For comparison, at least three freshly prepared samples were prepared for each concentration level. With the exception of autosampler stability, the internal standard was always added to all samples before sample processing was started.
Liquid-liquid extraction was performed identically for plasma and DMEM samples. After addition of the 1.0 µM internal standard, 50 µL of 0.8 M alkaline carbonate buffer was added. The extraction was performed once with 890 µL ethyl acetate. Tubes were then shaken for 10 min at 1400 rpm using a Thermomixer 5436 (Eppendorf AG, Hamburg, Germany) followed by centrifugation for 5 min at 14,000 rpm using a Centrifuge 5415 C (Eppendorf AG, Hamburg, Germany). Subsequently, 850 µL of the supernatant was transferred to a new tube and evaporated to dryness for 35 min at 35 °C (8 min heating time) using a SpeedVac SPD130DLX (Thermo Fisher Scientific, Asheville, NC, USA). Reconstitution was performed with 200 µL of a acetonitrile/water/H2SO4 [3/0.5/0.5] mixture, shaken at 1400 rpm for 5 min, and centrifuged again at 14,000 rpm for 5 min. Finally, 155 µL of the sample was transferred to an LC vial and analyzed.
To assess stability, low and high concentrations of all analytes were exposed to different storage conditions. To determine long-term stability, samples were stored in either plasma or DMEM at −80 °C for 90 and 91 days, respectively. To determine short-term stability, samples were stored for 24 h on the bench at room temperature, in the autosampler, at 4 °C, and at −20 °C. In addition, freeze-thaw cycles were performed for the standard solutions according to FDA guidance. At least three freshly prepared samples per concentration level were prepared for comparison. With the exception of the stability test in the autosampler, the internal standard was always added to all samples before sample processing was started. However, to avoid concentration fluctuations due to possible degradation of the analytes, stock solutions were prepared twice a week and stored at −20 °C. Each storage condition was examined in the dark. For all conditions studied, n = 3–6 replicates were prepared.

U251MG (glioblastoma) = experiment: WST-1 cell viability assay, 48-h incubation; assay type: cell-based, human; details: WST-1, 48 h, vs. vehicle, even at 3 µM in some (unnamed) cell lines
Method: (§1) To test the biological activity of the thia-analogous indirubin N-glycosides that are the focus of the present work, the effects of KD87 and KD85 and their non-glycosylated parent compound KD88 on the viability of various tumor cell lines were initially investigated. The corresponding analyses were performed using the cell lines A375 (melanoma), A431 (skin squamous cell carcinoma), A549 (non-small cell lung carcinoma), U251MG (glioblastoma), and U138MG (glioblastoma).
(§2) Figure 2 Effect of increasing concentrations of KD87 (A), KD85 (B), and KD88 (C) on viability of various cancer cells. A375 (melanoma; black columns), A431 (skin squamous cell carcinoma; dark grey columns), A549 (non-small cell lung carcinoma; grey columns), U251MG (glioblastoma; light grey columns), or U138MG (glioblastoma; white columns) were incubated for 48 h with the appropriate compounds or vehicle followed by determination of cell viability by WST-1 assay. Percent control represents comparison with vehicle-treated cells (100%) in the absence of test substance. Values are mean ± standard error of the mean (SEM) of n = 15 in all panels, except n = 14 for A375 and A431 cells in panel B and n = 14–15 for A375 cells in panel C, from four (A375, A431) or five (A549, U251MG, U138MG) independent experiments. * p ≤ 0.05, ** p ≤ 0.01, *** p ≤ 0.001, **** p ≤ 0.0001 vs. vehicle control; one-way ANOVA with Dunnett’s post hoc test.
(§3) The human melanoma cell line A375 (#300110; RRID:CVCL_0132) as well as the human skin epidermoid carcinoma cell line A431 (#300112; RRID:CVCL_0037) were purchased from CLS Cell Lines Service GmbH (Eppelheim, Germany). The human glioblastoma cell line U251MG (#09063001; RRID:CVCL_0021) was from Sigma-Aldrich Corporation. The human glioblastoma cell line U138MG (#ACC 291; RRID: CVCL_0020) and the human lung carcinoma cell line A549 (#ACC 107, RRID:CVCL_0023) were purchased from DSMZ (Deutsche Sammlung von Mikroorganismen und Zellkulturen GmbH, Braunschweig, Germany).
(§4) Cells were cultured in high-glucose DMEM (with GlutaMAX™-I: A375, A431; with UltraGlutamine^TM I: A549, U251MG, U138MG) supplemented with 10% heat-inactivated FBS, 100 U/mL penicillin, and 100 μg/mL streptomycin and grown in a humidified incubator at 37 °C and 5% CO2. For viability analyses, cells were seeded in 96-well plates at a density of 5000 cells per well in DMEM containing 10% heat-inactivated FBS and cultured for 24 h. All cell experiments with the specific substances were performed in serum-free DMEM supplemented with 100 U/mL penicillin and 100 μg/mL streptomycin, applied after washing the cells with DPBS. The test substances were dissolved in DMSO. The final concentration of DMSO in the incubation media of test substance- and vehicle-treated cells was 1% (v/v).
(§5) After completion of the 48-h incubation, WST-1 reagent (Sigma, Taufkirchen, Germany) was added to the cells to achieve a final dilution of 1:10, and the cells were incubated for an additional 20 min before absorbance was measured at 450 nm, reference wavelength […], using a microplate reader.

[2] = test system: A431 (skin squamous cell carcinoma); experiment: WST-1 cell viability assay, 48-h incubation; assay type: cell-based, human; details: A431, WST-1, 48 h, vs. vehicle; even at 3 µM in some (unnamed) cell lines
Method: as §1, §2, §3, §4, §5

[3] = test system: A549 (non-small cell lung carcinoma); experiment: WST-1 cell viability assay, 48-h incubation; assay type: cell-based, human; details: A549, WST-1, 48 h, vs. vehicle; even at 3 µM in some (unnamed) cell lines
Method: as §1, §2, §3, §4, §5

A375 (melanoma) = experiment: WST-1 cell viability assay, 48-h incubation; assay type: cell-based, human; details: A375, WST-1, 48 h, vs. vehicle; even at 3 µM in some (unnamed) cell lines
Method: as §1, §2, §3, §4, §5

U138MG (glioblastoma) = experiment: WST-1 cell viability assay, 48-h incubation; assay type: cell-based, human; details: WST-1, 48 h, vs. vehicle, even at 3 µM in some (unnamed) cell lines
Method: as §1, §2, §3, §4, §5

Structure (SMILES) | Stability 4 °C ([1]; 3.0 nM) | Stability AS (autosampler) ([1]; 3.0 nM) | Stability −20 °C ([1]; 3.0 nM) | Stability FT (freeze-thaw) ([1]; 3.0 nM) | Stability −80 °C 90 d ([1]; 3.0 nM) | Stability BT (benchtop) ([1]; 3.0 nM) | Stability 4 °C ([1]; 250 nM) | Stability AS (autosampler) ([1]; 250 nM) | Stability −20 °C ([1]; 250 nM) | Stability FT (freeze-thaw) ([1]; 250 nM) | Stability −80 °C 90 d ([1]; 250 nM) | Stability BT (benchtop) ([1]; 250 nM) | concentration from which significant cytotoxic effects start (U251MG (glioblastoma)) | concentration from which significant cytotoxic effects start [2] | concentration from which significant cytotoxic effects start [3] | concentration from which significant cytotoxic effects start (A375 (melanoma)) | concentration from which significant cytotoxic effects start (U138MG (glioblastoma))
O=C1/C(=C2/C(=O)N([C@@H]3O[C@H](CO)[C@@H](O)[C@H](O)[C@H]3O)c3ccccc32)Sc2ccccc21 [KD87, 3-[3′-oxo-benzo[b]thiophen-2′-(Z)-ylidene]-1-(β-D-glucopyranosyl)-oxindole] | 79.3 ± 2.4% | 80.8 ± 3.0% | 101.4 ± 3.4% | 98.3 ± 5.4% | 100.1 ± 8.4% | 64.4 ± 4.6% | 94.1 ± 5.6% | 73.7 ± 3.3% | 100.1 ± 0.7% | 99.7 ± 2.6% | 100.9 ± 3.6% | 77.8 ± 2.7% | ≤ 6 µM | ≤ 6 µM | ≤ 6 µM | ≤ 6 µM | ≤ 6 µM
O=C1/C(=C2/C(=O)N([C@@H]3O[C@H](CO)[C@@H](O)[C@H](O)[C@@H]3O)c3ccccc32)Sc2ccccc21 [KD85, 3-[3′-oxo-benzo[b]thiophene-2′-(Z)-ylidene]-1-(β-D-mannopyranosyl)-oxindole] | 85.5 ± 2.2% | 71.8 ± 2.7% | 86.4 ± 3.5% | 99.4 ± 4.0% | 102.5 ± 5.2% | 64.4 ± 3.6% | 94.3 ± 5.7% | 73.1 ± 2.7% | 101.8 ± 3.2% | 99.1 ± 2.0% | 101.7 ± 1.1% | 76.0 ± 2.6% | ≤ 6 µM | ≤ 6 µM | ≤ 6 µM | ≤ 6 µM | ≤ 6 µM
